Several values for one entry are separate records, joined by “and”; a condition that tells them apart may be missing. Equal entries are not always repeated. Where two headings read alike, the source gives them in different places.
Key:
[1] = tested on: PDGF receptor tyrosine kinase Y572/574; assay: PDGF receptor autophosphorylation in cells; format: cell-based; conditions: c-Src527F/NIH-3T3 cells
Protocol: (§1) HT29 (colon cancer) and c-Src527F/NIH-3T3 (Src transformed) cell lines were treated with KX2-391 or with AstraZeneca's ATP competitive Src inhibitor AZ28. AZ28 serves as a positive comparator to show what a validated Src inhibitor should do in these assays. After treatment with compound, cells were lysed, subjected to PAGE and probed with a battery of antibodies. […] In addition, off-target protein phosphorylation was also investigated. Further, induction of apoptosis was evaluated via Caspase 3 cleavage. Multiple doses of each compound were tested because the trends in response to increasing drug concentration are the most reliable indicator of activity.
(§2) The same range of multiples of the GI50 for AZ28 in these two cell lines was run as a comparison.
This is thought not to be a direct Src substrate in cells.

[2] = brain exposure after oral administration; format: in vivo, male CD-1 mice; conditions: for AUClast / Cmax / Tmax: Brain; for Kp: brain and plasma, read-out: AUClast Brain/AUClast Plasma Ratio
Protocol: Plasma concentrations were measured in mice after oral administration. All doses were formulated in purified water. Four groups of male CD-1 mice were dosed after an overnight fast and fed 4 hours post-dose. Dosing was as follows:
Protein was precipitated with 0.25 mL acetonitrile for plasma, 0.25 mL for brain. After centrifugation, supernatant was directly injected into an LC/MS system. The limit of quantitation was 1 ng/mL using a 50 μL aliquot for plasma and a 50 μL, aliquot for brain. The standard curve was 1 to 1,000 ng/mL for both plasma and brain. HPLC conditions were as follows:
HPLC System: Shimadzu SCL-10 System
• Analytical Column: Aquasil C18 5 μm 100×2 mm column. • Column Temperature: Ambient temperature • Autosampler Temperature: Ambient temperature • Mobile Phase A) 10 mM Ammonium formate in water (pH 4). • B) Acetonitrile. • Flow Rate: 0.6 mL/min • Injection Volume: 2 μL • Gradient:
• Mass Spectrometry Conditions were as follows: • Instrument: ABI Sciex API 4000 • Mode: ESI+ • Experiment: MRM (multiple reaction monitoring) • Transitions: KX2-391: m/z 432.4→114.2 (Rt=3.11 minute) • KX2-361: m/z 406.1→253.2 (Rt=3.33 minute)

Shc Y239/240 = assay: intracellular phosphorylation, Shc Y239/240; format: cell-based; conditions: whole cells
Protocol: as §1, §2
KX2-391 and AZ28 inhibited Src transphosphorylation.

GL261 glioma cells = assay: intracranial GL261 glioma survival study; format: in vivo, C57BL/6 mice; conditions: 5 mg/kg bid oral; C57BL/6 mice, intracranial GL261
Protocol: A brain tumor mouse xenograft study was conducted comparing KX2-361 and KX2-391 (KXO1) to Temodar®. The studies were conducted in C57BL/6 mice. GL261 glioma cells (1×10^5 in 5 μl DMEM) were implanted intracranial coordinates: bregma, lateral 2.0 mm, anterior 1.2 mm, 3.0 mm depth dura. Treatment was initiated 3 days post implantation. The groups were as follows (all doses in 100 μl H2O):
The median survival range and the log-rank (Mantel-Cox) statistical test results comparing the survival distributions of the samples.

HT29 cell line = assay: BrdU cell growth inhibition, HT29; format: cell-based, human; conditions: Homo sapiens, read-out: GI50
In short: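 HT29 colon carcinoma cells treated with compounds diluted from 20 mM DMSO stocks into DMEM/10% FBS. Proliferation read as colorimetric BrdU incorporation ELISA; GI calculated relative to untreated cells at time 0 and control cells at day n, with GI50 extrapolated. Net cell loss below time-0 level scored as cytotoxicity.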

c-Src 3T3 cells = assay: BrdU cell growth inhibition, c-Src 3T3; format: cell-based, mouse; conditions: Mus musculus; c-Src 3T3 (c-Src527F/NIH3T3) cells; read-out: GI50
In short: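 c-Src 3T3 cells on poly-D-lysine plates in DMEM with 2% FBS, L-glutamine, pyruvate and 10 mM HEPES. Compounds came from 20 mM DMSO stocks diluted in DMEM/10% FBS. Proliferation was read by colorimetric BrdU-incorporation ELISA, and GI50 was extrapolated from growth relative to time-zero and untreated controls.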

isolated Src = isolated Src (Homo sapiens, UniProt P12931); assay: titration against isolated Src; format: biochemical; conditions: titration data
[3] = male, CD-1, mouse, single oral dose 10 mg/kg
[4] = male, CD-1, mouse, single oral dose 50 mg/kg

Sequence of isolated Src (P12931 whole entry): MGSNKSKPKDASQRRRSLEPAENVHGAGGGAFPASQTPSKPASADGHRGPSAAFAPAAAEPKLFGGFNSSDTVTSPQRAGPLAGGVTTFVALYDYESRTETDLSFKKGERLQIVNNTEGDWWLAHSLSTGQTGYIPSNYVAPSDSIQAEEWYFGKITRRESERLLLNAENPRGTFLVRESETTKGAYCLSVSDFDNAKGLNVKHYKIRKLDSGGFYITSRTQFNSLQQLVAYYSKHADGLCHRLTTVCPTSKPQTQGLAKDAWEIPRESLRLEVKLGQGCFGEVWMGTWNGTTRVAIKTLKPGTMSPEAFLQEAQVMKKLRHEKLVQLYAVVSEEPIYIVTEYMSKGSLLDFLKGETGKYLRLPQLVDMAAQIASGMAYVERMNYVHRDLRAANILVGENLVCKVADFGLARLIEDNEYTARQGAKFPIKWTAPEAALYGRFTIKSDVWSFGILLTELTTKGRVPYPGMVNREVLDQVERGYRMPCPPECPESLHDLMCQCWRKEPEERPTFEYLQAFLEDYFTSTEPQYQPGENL

O=C(Cc1ccc(-c2ccc(OCCN3CCOCC3)cc2)cn1)NCc1ccccc1 [KX2-391]
PDGF receptor Y572/574 autophosphorylation [1]: Some effect
AUClast ([2]; single oral dose 10 mg/kg): 631 ng·h/g
AUClast ([2]; single oral dose 50 mg/kg): 4211 ng·h/g
KX2-391 Brain Concentrations, Group A ([2]; Male CD-1 mice, single PO dose 50 mg/kg (Group 4), 0 hr, Group A): BLQ (BLQ: Below Limit of Quantitation (1 ng/mL))
KX2-391 Brain Concentrations, Group B ([2]; Male CD-1 mice, single PO dose 50 mg/kg (Group 4), 0 hr, Group B): BLQ (BLQ: Below Limit of Quantitation (1 ng/mL))
KX2-391 Brain Concentrations, Group C ([2]; Male CD-1 mice, single PO dose 50 mg/kg (Group 4), 0 hr, Group C): BLQ (BLQ: Below Limit of Quantitation (1 ng/mL))
Kp [2, 3]: 0.42
Kp [2, 4]: 0.39
concentration at 0.5 h ([2]; male, CD-1, mouse, brain, po, 10 mg/kg, single PO dose 10 mg/kg (Group 1), 0.5 hr, read-out: Brain Concentrations, Group A, B, C): 398 ng/g
concentration at 0.5 h ([2]; male, CD-1, mouse, brain, po, 10 mg/kg, single PO dose 10 mg/kg (Group 1), 0.5 hr, read-out: Brain Concentrations, Mean): 398 ng/g
concentration at 1 h ([2]; male, CD-1, mouse, brain, po, 10 mg/kg, single PO dose 10 mg/kg (Group 1), 1 hr, read-out: Brain Concentrations, Mean): 170 ng/g
concentration at 2 h ([2]; male, CD-1, mouse, brain, po, 10 mg/kg, single PO dose 10 mg/kg (Group 1), 2 hr, read-out: Brain Concentrations, Group A, B, C): 126 ng/g
concentration at 2 h ([2]; male, CD-1, mouse, brain, po, 10 mg/kg, single PO dose 10 mg/kg (Group 1), 2 hr, read-out: Brain Concentrations, Mean): 98.5 ng/g
concentration at 5 h ([2]; male, CD-1, mouse, brain, po, 10 mg/kg, single PO dose 10 mg/kg (Group 1), 5 hr, read-out: Brain Concentrations, Group A, B, C): 67.7 ng/g
concentration at 5 h ([2]; male, CD-1, mouse, brain, po, 10 mg/kg, single PO dose 10 mg/kg (Group 1), 5 hr, read-out: Brain Concentrations, Mean): 71.4 ng/g
concentration at 0 hr ([2]; male, CD-1, mouse, brain, po, 50 mg/kg, Male CD-1 mice, single PO dose 50 mg/kg (Group 4), 0 hr, Mean, read-out: KX2-391 Brain Concentrations, Mean): 0 ng/g
concentration at 0.5 hr ([2]; male, CD-1, mouse, brain, po, 50 mg/kg, Male CD-1 mice, single PO dose 50 mg/kg (Group 4), 0.5 hr, Group A, read-out: KX2-391 Brain Concentrations, Group A): 960 ng/g
concentration at 0.5 hr ([2]; male, CD-1, mouse, brain, po, 50 mg/kg, Male CD-1 mice, single PO dose 50 mg/kg (Group 4), 0.5 hr, Group B, read-out: KX2-391 Brain Concentrations, Group B): 2120 ng/g
concentration at 0.5 hr ([2]; male, CD-1, mouse, brain, po, 50 mg/kg, Male CD-1 mice, single PO dose 50 mg/kg (Group 4), 0.5 hr, Group C, read-out: KX2-391 Brain Concentrations, Group C): 1050 ng/g
concentration at 0.5 hr ([2]; male, CD-1, mouse, brain, po, 50 mg/kg, Male CD-1 mice, single PO dose 50 mg/kg (Group 4), 0.5 hr, Mean, read-out: KX2-391 Brain Concentrations, Mean): 1380 ng/g
concentration at 1 hr ([2]; male, CD-1, mouse, brain, po, 50 mg/kg, Male CD-1 mice, single PO dose 50 mg/kg (Group 4), 1 hr, Group A, read-out: KX2-391 Brain Concentrations, Group A): 851 ng/g
concentration at 1 hr ([2]; male, CD-1, mouse, brain, po, 50 mg/kg, Male CD-1 mice, single PO dose 50 mg/kg (Group 4), 1 hr, Group B, read-out: KX2-391 Brain Concentrations, Group B): 1890 ng/g
concentration at 1 hr ([2]; male, CD-1, mouse, brain, po, 50 mg/kg, Male CD-1 mice, single PO dose 50 mg/kg (Group 4), 1 hr, Group C, read-out: KX2-391 Brain Concentrations, Group C): 549 ng/g
concentration at 1 hr ([2]; male, CD-1, mouse, brain, po, 50 mg/kg, Male CD-1 mice, single PO dose 50 mg/kg (Group 4), 1 hr, Mean, read-out: KX2-391 Brain Concentrations, Mean): 1100 ng/g
concentration at 2 hr ([2]; male, CD-1, mouse, brain, po, 50 mg/kg, Male CD-1 mice, single PO dose 50 mg/kg (Group 4), 2 hr, Group A, read-out: KX2-391 Brain Concentrations, Group A): 414 ng/g
concentration at 2 hr ([2]; male, CD-1, mouse, brain, po, 50 mg/kg, Male CD-1 mice, single PO dose 50 mg/kg (Group 4), 2 hr, Group B, read-out: KX2-391 Brain Concentrations, Group B): 986 ng/g
concentration at 2 hr ([2]; male, CD-1, mouse, brain, po, 50 mg/kg, Male CD-1 mice, single PO dose 50 mg/kg (Group 4), 2 hr, Group C, read-out: KX2-391 Brain Concentrations, Group C): 874 ng/g
concentration at 2 hr ([2]; male, CD-1, mouse, brain, po, 50 mg/kg, Male CD-1 mice, single PO dose 50 mg/kg (Group 4), 2 hr, Mean, read-out: KX2-391 Brain Concentrations, Mean): 758 ng/g
concentration at 5 hr ([2]; male, CD-1, mouse, brain, po, 50 mg/kg, Male CD-1 mice, single PO dose 50 mg/kg (Group 4), 5 hr, Group A, read-out: KX2-391 Brain Concentrations, Group A): 122 ng/g
concentration at 5 hr ([2]; male, CD-1, mouse, brain, po, 50 mg/kg, Male CD-1 mice, single PO dose 50 mg/kg (Group 4), 5 hr, Group B, read-out: KX2-391 Brain Concentrations, Group B): 260 ng/g
concentration at 5 hr ([2]; male, CD-1, mouse, brain, po, 50 mg/kg, Male CD-1 mice, single PO dose 50 mg/kg (Group 4), 5 hr, Group C, read-out: KX2-391 Brain Concentrations, Group C): 239 ng/g
concentration at 5 hr ([2]; male, CD-1, mouse, brain, po, 50 mg/kg, Male CD-1 mice, single PO dose 50 mg/kg (Group 4), 5 hr, Mean, read-out: KX2-391 Brain Concentrations, Mean): 207 ng/g
concentration at 0.5 h ([2]; male, CD-1, mouse, brain, po, 50 mg/kg, single PO dose 50 mg/kg (Group 2), 0.5 hr, read-out: Brain Concentrations, Group A, B, C): 2800 ng/g
concentration at 0.5 h ([2]; male, CD-1, mouse, brain, po, 50 mg/kg, single PO dose 50 mg/kg (Group 2), 0.5 hr, read-out: Brain Concentrations, Mean): 3690 ng/g
concentration at 1 h ([2]; male, CD-1, mouse, brain, po, 50 mg/kg, single PO dose 50 mg/kg (Group 2), 1 hr, read-out: Brain Concentrations, Group A, B, C): 946 ng/g
concentration at 1 h ([2]; male, CD-1, mouse, brain, po, 50 mg/kg, single PO dose 50 mg/kg (Group 2), 1 hr, read-out: Brain Concentrations, Mean): 788 ng/g
concentration at 2 h ([2]; male, CD-1, mouse, brain, po, 50 mg/kg, single PO dose 50 mg/kg (Group 2), 2 hr, read-out: Brain Concentrations, Group A, B, C): 613 ng/g
concentration at 2 h ([2]; male, CD-1, mouse, brain, po, 50 mg/kg, single PO dose 50 mg/kg (Group 2), 2 hr, read-out: Brain Concentrations, Mean): 610 ng/g
concentration at 5 h ([2]; male, CD-1, mouse, brain, po, 50 mg/kg, single PO dose 50 mg/kg (Group 2), 5 hr, read-out: Brain Concentrations, Mean): 370 ng/g
Cmax [2, 3]: 398 ng/g
Tmax [2, 3]: 30 min
Cmax [2, 4]: 3690 ng/g
Tmax [2, 4]: 30 min
Brain Concentrations, Group A, B, C ([2]; single PO dose 10 mg/kg (Group 1), 0.5 hr, 10 mg/kg): 509.00 ng/g and 286.70 ng/g
Brain Concentrations, Group A, B, C ([2]; single PO dose 10 mg/kg (Group 1), 2 hr, 10 mg/kg): 84.04 ng/g and 85.88 ng/g
Brain Concentrations, Group A, B, C ([2]; single PO dose 10 mg/kg (Group 1), 5 hr, 10 mg/kg): 75.21 ng/g and 71.22 ng/g
Brain Concentrations, Group A, B, C ([2]; single PO dose 50 mg/kg (Group 2), 0.5 hr, 50 mg/kg): 3190.42 ng/g and 5089.32 ng/g
Brain Concentrations, Group A, B, C ([2]; single PO dose 50 mg/kg (Group 2), 1 hr, 50 mg/kg): 936.29 ng/g and 482.22 ng/g
Brain Concentrations, Group A, B, C ([2]; single PO dose 50 mg/kg (Group 2), 2 hr, 50 mg/kg): 530.41 ng/g and 684.97 ng/g
phosphorylation of Shc Y239/240 (Src transphosphorylation) (Shc Y239/240): inhibited
Median survival (GL261 glioma cells): 23
survival Range (GL261 glioma cells): 22-29
GI50 (HT29 cell line; HT-29, HT29 (Colon) cells): 23 nM
GI50 (HT29 cell line; HT-29, HT-29, BrdU, T=72): 15.4 nM
GI50 (c-Src 3T3 cells): 13 nM
IC50 (isolated Src): 46000 nM

From patent US10196357B2, “Biaryl compositions and methods for modulating a kinase cascade” (Athenex, Inc., priority 2007, dated 2019)
